Patent publication US4657897A, “N^6 -substituted adenosines for treating pain” (Warner-Lambert Company, priority 1985, dated 1987)

Tests used:
[1] = Mouse Activity and Screen Test (MAST), screen test failure (ST); format: in vivo, mouse (Swiss-Webster, male); conditions: Mus musculus, ip, 1 h, read-out: MAST ST LAD
Method: (§1) Treatments are administered intraperitoneally one hour prior to testing. […] Compounds are dissolved or suspended in 0.2% Methocel. Control animals are injected with Methocel.
(§2) The compounds are identified in the Examples.

rat heart = experiment: Coronary blood flow (PCS2A), isolated perfused rat heart; parameters: species or system rat (male); conditions: read-out: effect on heart rate (HR)
Method: Male rats (400-600 gms) are pretreated with Na heparin 2000 units and anesthetized with Na pentobarbital (50 mg/kg) administered intraperitoneally. Once anesthetized, the rat heart is rapidly excised, the ascending aorta fitted to the aortic perfusion cannula, and secured with a ligature. The coronary arteries are perfused initially at a rate of about 15 ml/min for two to three minutes, afterwhich they are perfused at constant pressure of 70 mm Hg and temperature of 37° C. The electrocardiogram (ECG) is recorded using two platinum electrodes positioned at the base and apex of the left ventricle. A second heart is excised, cannulated, and perfused by the same method outlined above. Both hearts are tested in parallel. The standard physiological salt solution (PSS) is a modified Krebs-Hanseleit bicarbonate buffer of the following composition in mM concentration: NaCl, 127; NaHCO3, 25; dextrose, 5.5; Na Pyruvate, 2.0; KCl, 4.7; MgSO4, 1.1; KH 2PO4, 1.2; CaCl2.2H2 O, 2.5; CaNa2 EDTA, 0.05.
A 30-minute stabilization period is observed before starting the test protocol.
The microprocessor control system is a servo mechanism which permits coronary perfusion pressure (CPP) and drug concentration to be maintained constant independent of changes in coronary flow. The level at which CPP and drug concentration are maintained can be changed by commands communicated through the microprocessor keyboard. Dose-response curves are carried out by perfusing concentrated drug solution (DC) at rates proportional to total coronary flow (CFT). Drug concentrations are increased by proportionate increases in the rate of DC infusion over CFT via the microprocessor keyboard. The proportional flow rates for DC:CFT is about 0.0002:1 at the low end and 0.02:1 at the high end of the dose-response curve. Dose-response curves encompassing at least two log doses are carried out by preparing two DCs with a concentration difference of 1:100. Following the first dose range of two log doses, the DC are switched, proportional pumping rate adjusted, and the dose-responsecurve continued for another two log doses. The standard dose-response curve is carried out in one-half log dose increments starting at a subthreshold dose and ending at a dose which produces near maximal response in activity. Standard reference compounds are tested over the range of 10^-9 to 10^-6 M.
Measurements are for heart rate (HR) and coronary flow (CF). Units are: HR, beats/minute (bpm) and CF, milliliters/minute (ml/min). HR is calculated from the ECG strip chart recording and CF is calculated by recording analog outputs from pumps 1 and 2. Outputs from pump #1=CFT and the output from pump #2=CF for heart B (CFB). CF for heart A (CFA) is calculated (CFT -CFB =CFA).

[2] = Mouse Activity and Screen Test (MAST), inhibition of locomotion (LI); format: in vivo, mouse (Swiss-Webster, male); conditions: one hour data
Method: as §1
Immediately following the screen test, the final phase of testing is initiated by placing each group of three mice in one actophotometer (Life Sciences, 22, 1067-1076, 1978). The actophotometer consists of a cylindrical chamber whose center is occupied by another cylinder which contains the illumination for six photocells located on the perimeter of the chamber. Six light-beam interruptions equal one count. Locomotor activity is recorded by computer at ten minute intervals for 60 minutes.
as §2

[3] = Antihypertensive evaluation (AHP3), aortic blood pressure and heart rate in conscious rats; format: in vivo, rat
Method: This test procedure is described in the following paragraphs.
The continuous monitoring of pulsatile blood pressure (BP) from unrestrained conscious rats surgically equipped witth polyethylene cannulas was accomplished by means of a computer assisted data capture scheme (CADCS). The basic elements of the methodology are the cannulation procedure and the CADCS.
Rats were anesthetized with Telazol (1:1 tiletamine HCl and zolazepam HCl); 20-40 mg/kg IM and the descending aorta exposed via a midline incision. Cannulas fabricated from polyethylene tubing were inserted into the aorta via an undersized puncture hole below the renal arteries. The puncture hole was made by a 23 G disposable needle with a section of the aorta clamped off above and below the puncture site. The cannulas, consisting of a PE100 (0.86 mm ID) body and a PE50 (0.58 mm ID) tip, were attached to a trocar, inserted through the psoas muscle, and passed subcutaneously along the midline of the back and externalized between the ears. The cannulas were anchored to the psoas muscle and between the scalulae (3-0 green braided suture). The midline incision was closed in two steps (muscle first, skin second) using continuous over-and over sutures (4-0 chronic). Each rat was then given penicillin 30,000 units subcutaneously (Penicillin G Procaine Sterile Suspension).
The rats were fitted with a harness-spring-swivel assembly designed to protect the cannula and to provide the rat relative freedom of movement. The harnesses were fabricated from nylon hook and loop tape cemented to a metal plate to which spring wires (18-8 stainless steel), were attached to brass swivels. Each polyethylene cannula was channeled through a spring and connected through a swivel to a pressure transducer (Model P23Gb; Statham Instruments; Hato Rey, Puerto Rico) and an infusion pump (Sage model 234-7; Orion Research, Cambridge, MA) by means of PE100 tubing. While on test, each rat received a continuous slow infusion of heparinized saline solution (approximately […] or 40 units of heparin per 24 hour period) to prevent clot formation. Additional "flushes" of the cannula with heparinized saline were carried out when the aortic pulse pressure (systolic minus diastolic) was less than 25 mm Hg.
The pulsatile blood pressure and heart rate of each of 32 rats was monitored every minute by means of two in-laboratory microcomputers communicating directly with a data concentrator computer. The data were first stored on the data concentrator disk and then transferred to a magnetic tape for analysis and report generation by the main research computer. The overall scheme involved modulating the primary signal from the pressure transducer, generating the primary data set of the one-minute values for systolic, diastolic, and mean blood pressures and heart rate by the in-lab microcomputer and the storage, analysis, and report generation by the main reserach computer.
The transducers were connected to analog signal conditioning modules. The modules provided a regulated excitation voltage for the transducers, amplification as required to interface the microprocessors and an active low pass filter to compensate for the pressure wave form distortion produced by the flexible, fluid filled, narrow cannula. The distortion was 22-26 Hz and this provided a reliable estimate of both systolic and diastolic blood pressure.
The microcomputers (one for each of two groups of 16 rats) were connected to the input components through the module interface units, an analog-to-digital converter for the pressure wave form signal and the digital inputs for the dose and event marker switches. The microcomputer controlled the sequential acquisition of data from the modular interface units through an internal synchronous time-of-day clock/time base generator. Utilizing the time base generator as a reference, the blood pressure values and the marker switch status for each of the 32 stations were sampled every ten msec. […]

## OC[C@H]1O[C@@H](n2cnc3c(NCC(c4ccccc4)c4ccccc4)ncnc32)[C@H](O)[C@@H]1O [Example 1, N^6-(2,2-Diphenylethyl)adenosine]
[1]
  minimal effective dose: > 100 mg/kg
Rat heart
  activation at 0.001 µM: 1%
  activation at 0.003 µM: 3%
  activation at 0.01 µM: -1%
  activation at 0.1 µM: -13%
  activation at 1 µM: -47%
[2]; 10 mg/kg intraperitoneal
  Inhibition of mouse locomotor activity: 92%
[2]; 30 mg/kg intraperitoneal
  Inhibition of mouse locomotor activity: 93%
[2]; 100 mg/kg intraperitoneal
  Inhibition of mouse locomotor activity: 94%
[3]; 1 mg/kg
  change in MAP (decrease): 16%
  change in heart rate (HR increase): < 20%
[3]; 3 mg/kg
  change in MAP (decrease): 20%
  change in heart rate (HR increase): < 20%
[3]; 10 mg/kg
  change in MAP (decrease): 20%
  change in heart rate (HR increase): < 20%
[3]; 30 mg/kg
  change in MAP (decrease): 35%
  change in heart rate (HR increase): < 20%
